Data taken from ChEMBL document CHEMBL1909514, “Imidazo[2,1-b]thiazole guanylhydrazones as RSK2 inhibitors” (Eur J Med Chem, 2011).
Calls of active or inactive are those of the source. How the calls were made is not given here.

Experiments:
[1] = molecular target: T1, Aurora kinase A (Homo sapiens) (UniProt O14965); test: Inhibition of Aurora kinase A assessed as inhibition of substrate phosphorylation using fluorescent peptide substrate up to 100 uM by microplate reader assay
T1 sequence (whole entry): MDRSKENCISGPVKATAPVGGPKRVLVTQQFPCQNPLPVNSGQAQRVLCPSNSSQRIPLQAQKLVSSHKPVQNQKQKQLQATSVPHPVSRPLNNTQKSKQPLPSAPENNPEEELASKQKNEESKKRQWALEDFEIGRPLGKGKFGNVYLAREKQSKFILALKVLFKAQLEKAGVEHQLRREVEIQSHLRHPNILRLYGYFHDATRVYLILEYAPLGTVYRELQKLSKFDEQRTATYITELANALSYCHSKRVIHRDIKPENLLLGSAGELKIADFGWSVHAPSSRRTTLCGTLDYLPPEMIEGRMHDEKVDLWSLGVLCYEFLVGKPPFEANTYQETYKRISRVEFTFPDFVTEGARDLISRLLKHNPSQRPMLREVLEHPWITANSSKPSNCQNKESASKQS

[2] = Growth inhibition of human Hs 578T cells after 48 hrs by SRB assay; format: functional
[3] = test system: MDA-MB-231; test: Growth inhibition of human MDA-MB-231 cells after 48 hrs by SRB assay; format: functional; details: MDA-MB-231, 48 h
[4] = test system: MCF7; test: Growth inhibition of human MCF7 cells after 48 hrs by SRB assay; format: functional; details: MCF7, 48 h
[5] = test system: PC-3; test: Growth inhibition of human PC3 cells after 48 hrs by SRB assay; format: functional; details: PC-3, 48 h
[6] = test system: TK-10; test: Growth inhibition of human TK10 cells after 48 hrs by SRB assay; format: functional; details: TK-10, 48 h
[7] = test system: ACHN; test: Growth inhibition of human ACHN cells after 48 hrs by SRB assay; format: functional
[8] = test system: 786-0; test: Growth inhibition of human 786-0 cells after 48 hrs by SRB assay; format: functional; details: 786-0, 48 h
[9] = test system: SK-OV-3; test: Growth inhibition of human SKOV3 cells after 48 hrs by SRB assay; format: functional; details: SK-OV-3, 48 h
[10] = test system: OVCAR-5; test: Growth inhibition of human OVCAR5 cells after 48 hrs by SRB assay; format: functional; details: OVCAR-5, 48 h
[11] = test system: OVCAR-3; test: Growth inhibition of human OVCAR3 cells after 48 hrs by SRB assay; format: functional; details: OVCAR-3, 48 h
[12] = Growth inhibition of human OVCAR1 cells after 48 hrs by SRB assay; format: functional; details: OVCAR1, 48 h
[13] = test system: UACC-62; test: Growth inhibition of human UACC62 cells after 48 hrs by SRB assay; format: functional; details: UACC-62, 48 h
[14] = test system: SK-MEL-5; test: Growth inhibition of human SK-MEL-5 cells after 48 hrs by SRB assay; format: functional; details: SK-MEL-5, 48 h
[15] = test system: M14; test: Growth inhibition of human M14 cells after 48 hrs by SRB assay; format: functional; details: M14, 48 h
[16] = test system: LOX IMVI; test: Growth inhibition of human LOXIMVI cells after 48 hrs by SRB assay; format: functional
[17] = test system: SW-620; test: Growth inhibition of human SW620 cells after 48 hrs by SRB assay; format: functional; details: SW-620, 48 h
[18] = test system: HT-29; test: Growth inhibition of human HT-29 cells after 48 hrs by SRB assay; format: functional; details: HT-29, 48 h
[19] = test system: HCT-15; test: Growth inhibition of human HCT15 cells after 48 hrs by SRB assay; format: functional; details: HCT-15, 48 h
[20] = test system: HCT-116; test: Growth inhibition of human HCT116 cells after 48 hrs by SRB assay; format: functional; details: HCT-116, 48 h
[21] = test system: NCI-H322M; test: Growth inhibition of human NCI-H322M cells after 48 hrs by SRB assay; format: functional
[22] = test system: NCI-H226; test: Growth inhibition of human NCI-H226 cells after 48 hrs by SRB assay; format: functional; details: NCI-H226, 48 h
[23] = test system: A549; test: Growth inhibition of human A549 cells after 48 hrs by SRB assay; format: functional; details: A549, 48 h
[24] = test system: CCRF-CEM; test: Growth inhibition of human CCRF-CEM cells after 48 hrs by SRB assay; format: functional
[25] = molecular target: T2, Serine/threonine-protein kinase Chk1 (Homo sapiens, UniProt O14757)
T2 sequence (O14757 whole entry): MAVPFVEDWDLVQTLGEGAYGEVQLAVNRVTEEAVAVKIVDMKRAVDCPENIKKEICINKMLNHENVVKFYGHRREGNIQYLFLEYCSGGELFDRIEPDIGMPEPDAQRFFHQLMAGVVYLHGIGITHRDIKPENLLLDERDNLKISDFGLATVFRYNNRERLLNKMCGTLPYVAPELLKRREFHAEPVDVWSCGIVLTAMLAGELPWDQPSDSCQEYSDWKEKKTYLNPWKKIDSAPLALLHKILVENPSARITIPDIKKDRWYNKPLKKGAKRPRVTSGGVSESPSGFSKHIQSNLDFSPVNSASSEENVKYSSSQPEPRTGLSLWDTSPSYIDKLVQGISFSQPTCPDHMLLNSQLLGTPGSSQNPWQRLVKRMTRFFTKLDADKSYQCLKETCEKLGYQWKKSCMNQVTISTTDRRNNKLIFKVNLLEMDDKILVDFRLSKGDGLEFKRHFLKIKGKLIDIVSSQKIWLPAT
Description: Inhibition of CHK1 assessed as inhibition of substrate phosphorylation using fluorescent peptide substrate by microplate reader assay

[26] = molecular target: ALK tyrosine kinase receptor (Homo sapiens, UniProt Q9UM73)
[27] = read-out: pLC50 (the source's name) (converted)

Chain of ALK tyrosine kinase receptor (Q9UM73 whole entry): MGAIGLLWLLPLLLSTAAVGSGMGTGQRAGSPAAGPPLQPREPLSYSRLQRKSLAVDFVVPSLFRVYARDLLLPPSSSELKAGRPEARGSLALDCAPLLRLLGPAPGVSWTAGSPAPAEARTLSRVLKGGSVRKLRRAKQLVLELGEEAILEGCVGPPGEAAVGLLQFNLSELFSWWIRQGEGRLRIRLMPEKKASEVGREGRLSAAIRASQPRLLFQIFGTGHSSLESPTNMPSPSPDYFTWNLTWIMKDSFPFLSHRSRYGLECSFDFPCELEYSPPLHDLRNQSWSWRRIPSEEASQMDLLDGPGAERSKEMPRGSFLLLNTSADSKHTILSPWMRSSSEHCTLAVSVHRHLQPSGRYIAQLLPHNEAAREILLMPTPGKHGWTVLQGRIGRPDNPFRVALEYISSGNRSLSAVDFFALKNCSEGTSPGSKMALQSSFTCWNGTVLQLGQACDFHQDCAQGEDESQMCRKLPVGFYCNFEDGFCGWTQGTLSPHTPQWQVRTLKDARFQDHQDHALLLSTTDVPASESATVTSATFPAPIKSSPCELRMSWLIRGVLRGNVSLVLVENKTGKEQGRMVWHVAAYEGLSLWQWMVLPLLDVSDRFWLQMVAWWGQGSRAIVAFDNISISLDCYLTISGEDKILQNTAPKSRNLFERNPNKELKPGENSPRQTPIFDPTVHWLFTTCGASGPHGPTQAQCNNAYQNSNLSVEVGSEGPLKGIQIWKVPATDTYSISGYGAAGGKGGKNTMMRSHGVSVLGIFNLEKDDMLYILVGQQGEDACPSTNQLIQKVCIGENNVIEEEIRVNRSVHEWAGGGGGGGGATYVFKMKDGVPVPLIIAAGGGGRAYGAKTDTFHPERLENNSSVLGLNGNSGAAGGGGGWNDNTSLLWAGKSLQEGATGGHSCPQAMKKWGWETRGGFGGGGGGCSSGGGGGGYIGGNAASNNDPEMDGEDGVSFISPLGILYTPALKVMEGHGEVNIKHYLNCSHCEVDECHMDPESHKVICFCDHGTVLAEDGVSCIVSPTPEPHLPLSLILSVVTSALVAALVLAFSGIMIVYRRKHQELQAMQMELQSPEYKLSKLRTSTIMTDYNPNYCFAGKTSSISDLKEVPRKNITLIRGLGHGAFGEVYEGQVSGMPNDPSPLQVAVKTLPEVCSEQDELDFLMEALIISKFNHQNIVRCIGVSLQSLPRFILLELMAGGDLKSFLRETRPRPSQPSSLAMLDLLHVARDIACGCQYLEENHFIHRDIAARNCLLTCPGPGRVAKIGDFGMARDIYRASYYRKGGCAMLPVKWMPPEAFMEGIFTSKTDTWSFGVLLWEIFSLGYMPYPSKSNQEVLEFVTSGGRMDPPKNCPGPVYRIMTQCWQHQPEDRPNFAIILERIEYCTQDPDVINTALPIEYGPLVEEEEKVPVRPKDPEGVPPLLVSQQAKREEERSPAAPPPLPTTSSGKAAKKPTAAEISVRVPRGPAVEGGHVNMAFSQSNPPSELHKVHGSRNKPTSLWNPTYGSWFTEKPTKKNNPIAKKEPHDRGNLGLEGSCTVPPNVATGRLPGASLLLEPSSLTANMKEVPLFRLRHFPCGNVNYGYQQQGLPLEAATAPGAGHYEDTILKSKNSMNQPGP

N=C(N)N/N=C\c1c(-c2ccc([N+](=O)[O-])cc2)nc2sc(Br)cn12
inhibition [1]: inactive
GI50 [2]: 288 nM
CC50 [2, 27]: 3470 nM
TGI ([2]; read-out: pTGI (converted)): 933 nM
GI50 [3]: 275 nM
CC50 [3, 27]: 3890 nM
TGI ([3]; read-out: pTGI (converted)): 851 nM
GI50 [4]: 162 nM
TGI ([4]; read-out: pTGI (converted)): 324 nM
GI50 [5]: 186 nM
CC50 [5, 27]: 759 nM
TGI ([5]; read-out: pTGI (converted)): 380 nM
GI50 [6]: 269 nM
CC50 [6, 27]: 4470 nM
TGI ([6]; read-out: pTGI (converted)): 1100 nM
GI50 [7]: 295 nM
CC50 [7, 27]: 5370 nM
TGI ([7]; read-out: pTGI (converted)): 871 nM
GI50 [8]: 174 nM
CC50 [8, 27]: 575 nM
TGI ([8]; read-out: pTGI (converted)): 316 nM
GI50 [9]: 148 nM
CC50 [9, 27]: 5620 nM
TGI ([9]; read-out: pTGI (converted)): 4470 nM
GI50 [10]: 186 nM
CC50 [10, 27]: 851 nM
TGI ([10]; read-out: pTGI (converted)): 398 nM
GI50 [11]: 204 nM
CC50 [11, 27]: 724 nM
TGI ([11]; read-out: pTGI (converted)): 380 nM
GI50 [12]: 186 nM
CC50 [12, 27]: 661 nM
TGI ([12]; read-out: pTGI (converted)): 347 nM
GI50 [13]: 347 nM
CC50 [13, 27]: 4570 nM
TGI ([13]; read-out: pTGI (converted)): 4470 nM
GI50 [14]: 490 nM
CC50 [14, 27]: 5370 nM
TGI ([14]; read-out: pTGI (converted)): 1950 nM
GI50 [15]: 229 nM
CC50 [15, 27]: 1660 nM
TGI ([15]; read-out: pTGI (converted)): 537 nM
GI50 [16]: 191 nM
TGI ([16]; read-out: pTGI (converted)): 417 nM
GI50 [17]: 182 nM
CC50 [17, 27]: 891 nM
TGI ([17]; read-out: pTGI (converted)): 407 nM
GI50 [18]: 178 nM
CC50 [18, 27]: 646 nM
TGI ([18]; read-out: pTGI (converted)): 339 nM
GI50 [19]: 302 nM
CC50 [19, 27]: > 100000 nM
TGI ([19]; read-out: pTGI (converted)): 26900 nM
GI50 [20]: 166 nM
CC50 [20, 27]: 832 nM
TGI ([20]; read-out: pTGI (converted)): 302 nM
GI50 [21]: 309 nM
CC50 [21, 27]: 3980 nM
TGI ([21]; read-out: pTGI (converted)): 4170 nM
GI50 [22]: 1860 nM
CC50 [22, 27]: > 100000 nM
TGI ([22]; read-out: pTGI (converted)): 4470 nM
GI50 [23]: 182 nM
CC50 [23, 27]: 6610 nM
TGI ([23]; read-out: pTGI (converted)): 347 nM
GI50 [24]: 102 nM
CC50 [24, 27]: > 100000 nM
IC50 [25]: > 100000 nM
IC50 [26]: > 20000 nM
